What was measured:
C57Black mice = experiment: Toxicity analysis in naive mice; assay type: in vivo, mouse
Description: Supplementary Figure 8 : Toxicity analysis of HV -3in naïve mice .
We performed a toxicity analysis of HV-3 in mice. Six -week-old C57Black mice were treated with saline or peptide HV-3 at 3mg/kg/day by Alzet pump implantation. After 4- week treatment, the plasma, blood and whole mouse bodies of mice were collected. Examination on blood chemistry (Supplementary Table 1), hematology (Supplementary Table 2) and general necropsy of mice were performed at the Animal Diagnostic Laboratory at Stanford University. The experimenter who conducted the analysis was blind to the treatment groups. Automated hematology was performed on the Sysmex XT-2000iV analyzer system. Blood smears were made for all full CBC samples and reviewed by a medical technologist. Manual differentials were performed as indicated by species and automated analysis. Chemistry analysis was performed on the Siemens Dimension Xpand analyzer.
(a) Frozen tissue sections of brain and spleen were stained with anti-CD3 antibody by immunohistochemistry. There is no observed difference in the immuno-density of CD3 between saline-and HV-3- treated groups. Scale bar: 100 µm. (b) The size and weight of spleens in mice treated with saline or peptide HV-3 were compared. Left: the ratio of spleen weight to body weight was calculated and expressed as mean ± SEM of five mice in each group. Right: the images of spleens of mice treated with saline or peptide HV-3. There is no observed difference in the size of the spleens. Paired Student’s t test. Four-week sustained treatment with HV-3 by pump implantation had no effects on blood chemistry (Supplementary Table 1), hematology (Supplementary Table 2), and gross necropsy of naïve mice when compared to mice treated with saline. A four-week treatment with HV-3 had […] on immuno-density of CD3, a marker of T-cell for adaptive immune response, in the brains and spleens of naïve mice (a). Treatment with HV-3 had no effects on the size and weight of the spleens (b). […]

R6/2 mice = experiment: PGC1-alpha protein level in mouse brain; assay type: in vivo; conditions: R6/2 mouse brains (peer review file)
Excerpt: Comment 2: Also how do the authors fit this in with the well-established defects in PGC1-alpha in HD. Do you have to have both?
Response: We thank the reviewer for these insightful comments. Following […]
mouse brains of R6/2 mice treated with either HV-3 or control peptide TAT.
Consistent with previous studies, we observed that PGC1-alpha was decreased in HD R6/2 mouse brains. To our surprise, treatment with HV-3 can partially […]
on the right). It is possible that this increase in PGC1-alpha level is an indirect effect of improvement of mitochondrial mass and quality by the HV-3 treatment.
Recent studies have shown that PGC1-alpha regulates mitophagy and autophagy via TFEB (Tsunemi T et al., Sci Trans Med, 2014; Siddiqui A et al., J Neurosci, 2015). Thus, our result may raise another possibility that there is a correlation between PGC1alpha and VCP-mediated mitophagy in HD. However, the mechanism remains to be determined, and it is beyond the scope of this manuscript. In response to the reviewer’s comment, we now add the following sentences in the discussion in the revised manuscript.
“In addition, PGC1α, a key regulator of mitochondrial biogenesis implicated in HD pathogenesis, has recently been reported to regulate mitophagy and autophagy through TFEB signaling 65, 66. […]

[1] = system: interaction between VCP and UBXD1; experiment: Co-immunoprecipitation VCP/UBXD1; assay type: cell-based; conditions: HV-3 treatment; total cell lysates, IP/WB
Description: (b) Stick drawings of VCP and Htt main domains. […] Immunoprecipitates were analysed by WB with the indicated antibodies. […] VCP mitochondrial levels were determined by WB. Loading control: VDAC. Data are mean±s.e.m. (g–i) ANOVA with Holm-Sidak post hoc test.

[2] = system: HdhQ111 striatal cells and striata of HD R6/2 and YAC128 mice; experiment: VCP total protein level, HD cells and HD mouse striata (western blot); conditions: HV-3 treatment, HD cell cultures and HD animal brains
Description: Protein concentrations were determined by Bradford assay. Protein was resuspended in Laemmli buffer, loaded on SDS–PAGE, and transferred onto nitrocellulose membranes. Membranes were probed with the indicated antibodies, followed by visualization with ECL. Representative blots have been cropped for presentation. Images of full-size blots are presented in Supplementary Fig. 9. […]
green). Lower: the enlarged area is labeled in green. (f) The sequence in VCP corresponding to HV-3 in Htt was deleted (Δ VCP). GST, GST-VCP, or GST-ΔVCP was incubated with total lysates of mouse brain for 16 hours followed by Western blot with anti -Htt antibodies. The representative blots are from three independent experiments.
Supplementary Figure 5: Treatment of peptide inhibitor HV-3 in HD animal models. (a) HD R6/2 mice and wildtype littermates were treated with either a control peptide or peptide HV-3 (3 mg/kg/day, subcutaneous administration with an Alzet osmotic pump) from 5 to 13 weeks of age. The pump was replaced every four weeks. […] Mouse behaviors and HD -associated pathology were determined […] after beginning treatment. […]
(b) To t a l protein lysates were extracted from HdhQ111 striatal cells and the striata of HD R6/2 and YAC128 mice. VCP protein levels were determined by Western blot analysis. […]

[3] = 3 mg/kg/day, 4 weeks, versus saline

## CSCC[C@H](NC(=O)[C@@H](NC(=O)[C@H](CC(C)C)NC(=O)[C@@H](NC(=O)[C@H](Cc1c[nH]cn1)NC(=O)CCCCCNC(=O)[C@H](CCCNC(=N)N)NC(=O)[C@H](CCCNC(=N)N)NC(=O)[C@H](CCCNC(=N)N)NC(=O)[C@H](CCC(N)=O)NC(=O)[C@H](CCCNC(=N)N)NC(=O)[C@H](CCCNC(=N)N)NC(=O)[C@H](CCCCN)NC(=O)[C@H](CCCCN)NC(=O)[C@H](CCCNC(=N)N)NC(=O)CNC(=O)[C@@H](N)Cc1ccc(O)cc1)C(C)C)C(C)C)C(=O)N[C@@H](CS)C(=O)N[C@@H](C)C(=O)N[C@H](C(N)=O)[C@@H](C)O [HV-3]
C57Black mice; 3 mg kg^−1 per day, 4-week Alzet pump
  toxicity: not toxic to naive mice
C57Black mice; [3]
  CD3 immunodensity in brain and spleen: no significant effects on the immunodensity of CD3
  gross necropsy: no effects
C57Black mice; 3 mg/kg/day, 4 weeks, versus saline, n = 5
  size and weight of spleens: no obvious effects on the size and weight of the spleens
R6/2 mice
  PGC1-alpha protein level: improve the protein level of PGC1-alpha in the R6/2 mouse brains
[1]
  interaction between VCP and UBXD1: nor did it influence the interaction between VCP and its known binding protein UBXD1
[2]
  VCP total protein levels: no effects on VCP total protein levels

Source: paper PMC5007466, “VCP recruitment to mitochondria causes mitophagy impairment and neurodegeneration in models of Huntington's disease” (Nature Communications, 2016)
